Data set [1] can be described thus: Translational diffusion NMR (DOSY). It counts as physicochemical. How it is done: (b) Translational diffusion NMR (DOSY): Peptide concentrations were the same as those used in the 1D-^1H-NMR spectra. Translational self-diffusion measurements were performed with the pulsed-gradient spin-echo sequence in the presence of 100% D2O. The following relationship existed between the translational self-diffusion coefficient, D, and the delays used during experiment acquisition:(2) I/I0=−exp(DγH2δ^2G^2(Δ−δ/3−τ/2)) where I is the peak intensity of a particular resonance (or a group of them) at any gradient strength; I0 is the maximum peak intensity of the same resonance(s) at the smallest gradient strength (that is, at 2% of the total power of the gradient coil); D is the translational self-diffusion constant (in cm^2 s^−1); δ is the duration (in s) of the gradient; G is the gradient strength (in T cm^−1); ∆ is the time (in s) between the gradients; γH is the gyromagnetic constant of the proton (in rad s^−1 T^−1); and τ is the recovery delay between the bipolar gradients (100 µs in our experiments). The gradient strength (G) was varied in 16 lineal steps, between 2 and 95% of the total power of the gradient coil of the probe. The gradient strength was calibrated by using the value of D for the residual proton water line in a sample containing 100% D2O placed in a 5 mm tube [42]. Data were plotted as I/I0 versus G^2, and the exponential factor of the curve was:(3) DγH2δ^2(Δ−δ/3−τ/2) from which D can be obtained. The duration of the gradient (δ) was 2.25 ms, and the time between the two gradients (∆) was set to 200 ms. The signal from the methyl groups between 1.1 and 0.70 ppm were used for integration of the intensity. A final concentration of 1% of dioxane was added to each peptide; the hydrodynamic radius, Rh, of each peptide was obtained for comparison by assuming that the Rh of dioxane was 2.12 Å [42]. The DOSY experiment was repeated twice with fresh samples for each peptide.

The target of data set [2] is EIN^sc (N-terminal domain of EI^sc) (Streptomyces coelicolor, UniProt Q9KZP1). Description: biochemical. It counts as binding. The procedure:
(§1) The experimental set-up and data processing of ITC experiments has been described previously. Rsd^ec or EIN^sc (at 10–20 µM) were injected into the cell, and the peptides in the syringe (100–200 µM) in 50 mM of Tris buffer, pH 7.0. The temperature for all the experiments was 25 °C. Typically, each calorimetric titration consisted of performing 19 injections with 2 μL volume, with a time spacing of 150 s, while stirring at 750 rpm in an Auto-iTC200 high-sensitivity microcalorimeter (MicroCal, Malvern-Panalytical, Malvern, UK). The results were analysed by applying a model that considered a single binding site (assuming a 1:1 stoichiometry) for the peptide/EIN^sc or peptide/Rsd^ec interaction using a nonlinear least-squares regression analysis in Origin 7.0 (OriginLab, Northampton, MA, USA) with user-defined fitting routines.

In data set [3] the target is EIN^sc (Streptomyces coelicolor, UniProt Q9KZP1). As to the kind of experiment: biochemical. The class given is binding. How it is done: (§2) Spectra were collected at 25 °C on a Cary spectrofluorometer (Agilent, Madrid, Spain), with a Peltier temperature controller. The samples were prepared the day before and left overnight at 5 °C. Before measurements, the samples were incubated for 1 h at 25 °C. A quartz cell with a 1 cm path length (Hellma, Kruibeke, Belgium) was used. In all the experiments, the slit widths were equal to 5 nm for both the excitation and emission lights. Protein samples were excited at either 280 or 295 nm. The experiments were performed between 300 and 400 nm. The signal was acquired for 1 s, and the increment of wavelength was set to 1 nm. Appropriate blank corrections were made in all spectra. For the binding experiments, 3 µM of either protein (Rsd^ec or EIN^sc) and 15 µM of the corresponding peptide were mixed. The experiments in aqueous solution were acquired in Tris buffer (50 mM, pH 7.0).
EIN^sc, sequence (Q9KZP1 1-230): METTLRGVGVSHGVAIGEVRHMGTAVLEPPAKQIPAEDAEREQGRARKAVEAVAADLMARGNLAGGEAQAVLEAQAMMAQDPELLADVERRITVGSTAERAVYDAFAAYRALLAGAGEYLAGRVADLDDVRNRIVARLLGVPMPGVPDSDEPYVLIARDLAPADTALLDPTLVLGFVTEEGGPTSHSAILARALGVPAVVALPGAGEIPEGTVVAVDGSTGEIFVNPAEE
(§3) For the titration between either of the two proteins (Rsd^ec or EIN^sc) and the corresponding peptide, increasing amounts of the latter, in a concentration range of 0 to 30 µM, were added to a solution with a fixed concentration of each protein (3 µM). The experimental set-up was identical to that described above, including preparation of the samples the day before and their storage overnight at 5 °C. Before measurements, the samples were incubated for 1 h at 25 °C. The fluorescence of a blank solution containing only the corresponding peptide was subtracted for each data point. […] The Kd was determined by following the fluorescence at selected wavelengths and fitting experimental data to Equation (1). […] At all used concentrations, the fluorescence was corrected by the inner-filter effects.

Data set [4] relates to Staphylococcus aureus CECT59. It counts as cell-based. As to conditions: S. aureus CECT59, two-fold broth microdilution (CLSI), MH broth, 24 h, 37 °C; triplicate (sd = 0); highest concentration tested 400 µM. The procedure:
The CECT59 strain of the Gram-positive bacteria Staphylococcus aureus from the Spanish Type Culture Collection (Colección Española de Cultivos Tipo, CECT, Universitat de Valencia, Spain) was used for determining its sensitivity to the HPr peptides studied in this work. The MIC for each peptide was determined by the two-fold broth microdilution method according to the Clinical and Laboratory Standards Institute (CLSI) guidelines, with some modifications as previously described. For this testing procedure, a bacteria colony previously grown in MH agar plates was isolated and incubated in MH broth at 37 °C overnight to prepare the bacteria inoculum to be used in each assay. Then, the bacteria suspensions were adjusted to a 100× dilution of an 0.5 McFarland turbidity standard in MH broth and incubated with different concentrations of each peptide in round-bottom 96-well polystyrene plates (Deltalab S.L., Rubí, Spain) (50 μL/well) for 24 h at 37 °C. The peptide concentrations employed comprised two-fold dilutions starting at either 120, 160, or 400 µM, depending on the experiment. […] All assays were performed in triplicate.
(In general: Broth dilution looks for growth in wells or tubes with falling amounts of substance.)

For data set [5] the following is noted: aqueous solution; cited from earlier work. The source says: Streptomyces is an actinomycete, Gram-positive organism with high content of G + C base pairs in its genome. We have carried out an extensive description of the structures and conformational stabilities of HPr^sc (O50515) and EI (EI^sc) (Q9KZP1) to understand their binding in the PTS cascade. We have also characterized the interaction of EI^sc with wild-type HPr^sc and that of the phosphorylated species, as well as that of the N-terminal domain of EI^sc (EIN^sc) with intact HPr^sc. We have also shown that the peptide comprising residues Ala9-Gly3 ...

Data set [6] deals with T1, Rsd^ec (Escherichia coli, UniProt P0AFX4).
T1 construct: His-tag; made in house; host or cells: E. coli C41
T1 sequence (P0AFX4 whole entry): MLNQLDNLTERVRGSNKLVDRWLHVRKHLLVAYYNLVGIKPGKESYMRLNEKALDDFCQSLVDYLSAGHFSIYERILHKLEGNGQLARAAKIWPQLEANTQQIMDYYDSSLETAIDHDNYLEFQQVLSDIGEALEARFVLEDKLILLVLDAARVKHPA
As to the kind of experiment: Isothermal titration calorimetry (ITC), peptide/Rsd^ec binding. As to conditions: ITC, 25 °C, 50 mM Tris pH 7.0. The procedure:
as §1

The target of data set [7] is T1, Rsd^ec. Description: Fluorescence titration, peptide/Rsd^ec binding. How it is done:
as §2, §3

EIN^sc (N-terminal domain of EI^sc), sequence (Q9KZP1 1-230): as the sequence (Q9KZP1 1-230) above

Consider “Ac-GWAEGLHARPASIFVRAATATG-NH2 [Wild-type]”, for which the “D (translational diffusion coefficient)” value in data set [1] (DOSY, 10 °C, 100% D2O, 70-120 µM peptide, fitting errors, repeated twice) came out at 1.95 ± 0.03 cm^2 s^−1 × 10^6. The “Rh (in parentheses, from DOSY)” value in data set [1] (from comparison with the Rh of dioxane (2.12 Å)) was 11 ± 1 Å. Also, the figures for the equilibrium dissociation constant (Kd) in data set [2], in data set [3] and in data set [7] were 2.3 ± 0.4 µM, 10 µM and 5 µM, respectively. Besides, in data set [2] (ITC, 25 °C, 50 mM Tris pH 7.0), the “ΔH, EIN^sc” value was -0.8 ± 0.4 kcal/mol. The minimal inhibitory concentration (MIC) (usually the smallest concentration in the dilution series that meets the test's criterion for growth inhibition) in data set [4] came out at 40 µM. Also, the helical population entry in data set [5] is reported as “about 7%”. Further, the “ΔH, Rsd^ec” value in data set [6] was determined as 1.3 ± 0.4 kcal/mol.

The values are drawn from paper PMC8509676, “Residual Helicity at the Active Site of the Histidine Phosphocarrier, HPr, Modulates Binding Affinity to Its Natural Partners” (International Journal of Molecular Sciences, 2021).
